Key:
[1] = tested on: E. coli CFT073 ATCC 700928 and/or E. coli Nissle 1917; assay: Cell-based assay with ClbP with LCMS, ClbP positive strain
Procedure, shortened: (§1)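 Compound (10 μM final) incubated 20 h at 37° C, aerobically, with 1:40-diluted overnight cultures of ClbP-positive E. coli or negative BL21(DE3), in duplicate, alongside uninoculated LB. Remaining parent quantified by LC-MS/MS (MRM) after acetonitrile quench, expressed as percent of media-alone.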

[2] = tested on: E. coli BL21(DE3); assay: Payload release in the presence of fecal matter, ClbP negative E. coli; format: cell-based; settings: 10 μM compound, anaerobic, 37° C., 20 h, LCMS
Description: (§2) This example is representative of the methods described in Example 103. Fecal samples were subjected to metagenomic whole-genome shotgun sequencing followed by querying the dataset for the presence of the clbP gene or by attempting to amplify the gene with primers specific for it by qPCR. Samples that gave a signal below the detection limit were used in subsequent steps. The fecal sample was resuspended as a 15% (w/v) slurry in Anaerobic Phosphate Buffer Saline.
(§3) Following steps 1 and 2 as detailed in Example 98, E. coli CFT073 ATCC 700928, E. coli Nissle 1917, or E. coli BL21(DE3) were grown in liquid culture.
(§4) In an anaerobic chamber, the E. coli strains were added to the fecal samples obtained in step 1 at a dilution level calculated to represent 0, 1, 10, 50, 90, 99, or 100% of all organisms present in PRAS dilution blank on a 200 μL volume. The test compound (10 μM final concentration) was added to the mixture. The test compound was also added to a bacteria-free media control under similar conditions. The plate was sealed and incubated at 37° C. for 20 h. Under similar conditions, a standard curve of both the starting material and the payload compound was made in bacteria-free media.
(§5) After 20 h, an aliquot was tested for breakdown and release of a payload by LCMS by diluting serially to a final dilution of 1:100 first with Acetonitrile (10× dilution) and then with (1:1) Mobile Phase A-0.1% Formic Acid in Water:Mobile Phase B-0.1% Formic acid in Acetonitrile (1 OX dilution), with absolute quantification compared to the external standard curve. In an ideal case, the amount of payload released in the reaction(s) with ClbP-encoding E. coli was >75% of the theoretical maximum, and none was released in the E. coli BL21(DE3) and media-alone conditions. In an acceptable case, the amount of payload released in the reaction(s) with ClbP-encoding E. coli was 25-75% of the theoretical maximum, and <25% of the theoretical maximum was released in the E. coli BL21(DE3) and media-alone conditions. In a non-preferred case, the amount of payload released in the reactions(s) with ClbP-encoding E. coli was <25% of the theoretical maximum, and >25% of the theoretical maximum was released in the E. coli BL21(DE3) and media-alone conditions.

[3] = tested on: E. coli BL21(DE3); assay: Cell-based assay with ClbP with LCMS, ClbP negative strain; settings: 10 μM compound, 37° C., 20 h
Procedure, shortened: as §1

[4] = tested on: E. coli Nissle 1917; assay: Payload release in the presence of fecal matter, ClbP positive E. coli; format: cell-based; settings: 10 μM compound, anaerobic, 37° C., 20 h, LCMS
Description: as §2, §3, §4, §5

[5] = tested on: CT26.CL25 cells; assay: Cell viability readout (CellTiter-Glo) with bacteria-free media; format: cell-based, mouse; settings: 10 nM compound, CT26.CL25 cells, 72 h, CellTiter-Glo
Protocol: Example 100: Cell-Based Assay of Bacterial Enzymes with Mammalian CT26.CL25 Mouse Colorectal Carcinoma Viability Readout
Bacteria-free media was incubated with the indicated test compound. ((R)—N1-(2-(methylamino)ethyl)-2-octanamidosuccinamide, a recognition element-linker conjugate lacking a payload, was serially diluted 1:1000 in DMSO and […] in medium+10% FBS to give a final concentration of 10 nM. Compound 35, Compound 76, Compound 77, Compound 78, Compound 79, and SN-38 were serially diluted 1:1000 in DMSO and 1:1000 in medium to give a final concentration of 10 nM, and then the bacteria-free supernatants were tested for their ability to kill mammalian cells. As an additional control, the test compound will also be incubated with bacteria-free media. The above steps can also be performed in the presence of E. coli (CFT073 ATCC 700928, Nissle 1917, or BL21 (DE3)) to effect cleavage of the conjugates of the application.
On Day 1, CT26.CL25 cells (15,000 cells/well) were seeded in triplicate into a 24 well plate and incubated overnight in 100 μL of complete medium. The reactions (bacteria or media blank) was pelleted by centrifugation, and then the supernatant was passed through a 0.2 μm sterile filter to remove residual bacteria.
On Day 2, 300 μL of a 10 nM solution of each compound in media were applied to separate wells of CT26.CL25 cells as prepared on Day 1. The cells were incubated at 37° C. for 72 h. After this point, viability was assessed using a CellTiter-Glo kit.
Binning of the compounds was achieved by measuring cell growth or arrest (e.g. remaining cells are >90% viable, >80% viable, >70% viable, >60% viable, >50% viable, >40% viable, >30% viable, >20% viable, or >10% viable).

| SMILES | % Remaining in ClbP Positve Relative to Media-Only ([1]; ClbP-encoding E. coli, 10 μM compound, 37° C., 20 h) | Difference between the ClbP Positive and ClbP Negative release profiles ([1]; conclusion from Table 4) | % payload released in ClbP negative (BL21 DE3) at 1:1 ratio of E. coli to fecal bacteria [2] [%] | % Remaining in ClbP Negative Relative to Media-Only [3] | % payload released in ClbP positive (Nissle 1917) at 1:1 ratio of E. coli to fecal bacteria [4] [%] | Bacteria-free media (Luminescence, average of three runs) [5] |
| --- | --- | --- | --- | --- | --- | --- |
| CCCCCCCC(=O)N[C@H](CC(N)=O)C(=O)NCCCC(=O)OCn1cc(F)c(=O)[nH]c1=O [Example 72B, (5-fluoro-2,4-dioxo-3,4-dihydropyrimidin-1(2H)-yl)methyl (R)-4-(4-amino-2-octanamido-4-oxobutanamido)butanoate] | ++ (<25% compound remaining in the 20 μM WT ClbP reaction relative to the control) | particularly favorable difference | 5.4 | − (>75% compound remaining in the 20 μM WT ClbP reaction relative to the no-enzyme control) | 41.1 |  |
| CCCCCCCC(=O)N[C@H](CC(N)=O)C(=O)NCCN(C)C(=O)Oc1ccc2nc3c(c(CC)c2c1)Cn1c-3cc2c(c1=O)COC(=O)[C@]2(O)CC [Example 76, (S)-4,11-diethyl-4-hydroxy-3,14-dioxo-3,4,12,14-tetrahydro-1H-pyrano[3′,4′:6,7]indolizino[1,2-b]quinolin-9-yl (2-((R)-4-amino-2-octanamido-4-oxobutanamido)ethyl)(methyl)carbamate] |  |  | 0 |  | 25 | 282345 |
| CCCCCCNC(=O)N[C@H](CC(N)=O)C(=O)NCCN(C)C(=O)Oc1ccc2nc3c(c(CC)c2c1)Cn1c-3cc2c(c1=O)COC(=O)[C@]2(O)CC [Example 77, (S)-4,11-diethyl-4-hydroxy-3,14-dioxo-3,4,12,14-tetrahydro-1H-pyrano[3′,4′:6,7]indolizino[1,2-b]quinolin-9-yl (2-((R)-4-amino-2-(3-hexylureido)-4-oxobutanamido)ethyl)(methyl)carbamate] |  |  | 0 |  | 0 | 345334 |
| CCc1c2c(nc3ccc(OC(=O)N(C)CCNC(=O)[C@@H](CC(N)=O)NC(=O)CCCc4ccccc4)cc13)-c1cc3c(c(=O)n1C2)COC(=O)[C@]3(O)CC [Example 78, (S)-4,11-diethyl-4-hydroxy-3,14-dioxo-3,4,12,14-tetrahydro-1H-pyrano[3′,4′:6,7]indolizino[1,2-b]quinolin-9-yl (2-((R)-4-amino-4-oxo-2-(4-phenylbutanamido)butanamido)ethyl)(methyl)carbamate] |  |  | 0 |  | 0 | 317645 |
| CCCCCCCC(=O)N[C@H](CC(N)=O)C(=O)NCCN(C)C(=O)O[C@]1(CC)C(=O)OCc2c1cc1n(c2=O)Cc2c-1nc1ccc(O)cc1c2CC [Example 79, (S)-4,11-diethyl-9-hydroxy-3,14-dioxo-3,4,12,14-tetrahydro-1H-pyrano[3′,4′:6,7]indolizino[1,2-b]quinolin-4-yl (2-((R)-4-amino-2-octanamido-4-oxobutanamido)ethyl)(methyl)carbamate] |  |  | 0 |  | 0 | 288245 |

Source: US11998610B2, “Conjugates and methods of using the same” (Flagship Pioneering Innovations V, Inc., priority 2018, dated 2024)
